In ChEMBL document CHEMBL1201862, “PubChem BioAssay data set” (2004):
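96-well plates; 48 h exposure; 5 concentrations. Endpoints by linear interpolation between flanking doses. Not reached: highest tested concentration assigned. GI50 = concentration required for 50% inhibition of growth.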 Activity calls are given as the source filed them. Rule as the data show it: active = GI50 up to about 1.1 µM and inactive = higher.

Tests used:
Experiment in all cases: inhibition of tumour cell growth, NCI panel, 48 h
[1] = tested on: PC-3
[2] = tested on: A549
[3] = tested on: UACC-62
[4] = tested on: MDA-MB-435
[5] = tested on: A498
[6] = tested on: MCF7
[7] = tested on: NCI-H460
[8] = tested on: SK-MEL-2
[9] = tested on: M14
[10] = tested on: SW-620
[11] = tested on: HOP-62
[12] = tested on: U-251
[13] = tested on: SNB-75
[14] = tested on: SF-268
[15] = tested on: UO-31
[16] = tested on: Hs-578T
[17] = tested on: CAKI-1
[18] = tested on: NCI-H23
[19] = tested on: HCT-116
[20] = tested on: HCT-15

SMILES: COc1cccc2c1/c(=C/c1ccc(N(C)C)cc1)c1cc(-c3ccccc3)[n+](C)n12
- GI50 [1]: 0.0321 µM (active)
- GI50 [2]: 0.112 µM (active)
- GI50 [3]: 0.182 µM (active)
- GI50 [4]: 0.0773 µM (active)
- GI50 [5]: 0.305 µM (active)
- GI50 [6]: 0.0957 µM (active)
- GI50 [7]: 0.106 µM (active)
- GI50 [8]: 0.131 µM (active)
- GI50 [9]: 0.126 µM (active)
- GI50 [10]: 0.0421 µM (active)
- GI50 [11]: 0.218 µM (active)
- GI50 [12]: < 0.0158 µM (active)
- GI50 [13]: 0.189 µM (active)
- GI50 [14]: 0.109 µM (active)
- GI50 [15]: 0.295 µM (active)
- GI50 [16]: 0.147 µM (active)
- GI50 [17]: 0.804 µM (active)
- GI50 [18]: 0.131 µM (active)
- GI50 [19]: 0.107 µM (active)
- GI50 [20]: 0.471 µM

SMILES: COC(=O)c1c(O)ccc2c1c1c(n2Cc2ccccc2)C(=O)c2ccccc2C1
- GI50 [1]: 20 µM (inactive)
- GI50 [2]: 30.8 µM (inactive)
- GI50 [3]: 36.9 µM (inactive)
- GI50 [4]: 33 µM (inactive)
- GI50 [5]: 64.7 µM (inactive)
- GI50 [6]: 25.4 µM (inactive)
- GI50 [7]: 31.9 µM (inactive)
- GI50 [8]: 43.6 µM (inactive)
- GI50 [9]: 52.4 µM (inactive)
- GI50 [10]: 74 µM (inactive)
- GI50 [11]: > 100 µM (inactive)
- GI50 [12]: 38 µM (inactive)
- GI50 [13]: 20.6 µM (inactive)
- GI50 [14]: 39 µM (inactive)
- GI50 [15]: 49.4 µM (inactive)
- GI50 [16]: 86.5 µM (inactive)
- GI50 [17]: 36.5 µM (inactive)
- GI50 [18]: 41.2 µM (inactive)
- GI50 [19]: 54.6 µM (inactive)
- GI50 [20]: 35.1 µM

SMILES: CN(C)CN1C(=O)S/C(=C2\C(=O)N(CN(C)C)c3ccccc32)C1=O
- GI50 [1]: 45.6 µM (inactive)
- GI50 [2]: 45.8 µM (inactive)
- GI50 [3]: 65.3 µM (inactive)
- GI50 [4]: 66.1 µM (inactive)
- GI50 [5]: > 100 µM (inactive)
- GI50 [6]: 38.5 µM (inactive)
- GI50 [7]: 32.3 µM (inactive)
- GI50 [8]: 32.1 µM (inactive)
- GI50 [9]: 21.7 µM (inactive)
- GI50 [10]: 30.6 µM (inactive)
- GI50 [11]: 41.6 µM (inactive)
- GI50 [12]: 40.6 µM (inactive)
- GI50 [13]: 22.2 µM (inactive)
- GI50 [14]: 32.8 µM (inactive)
- GI50 [15]: 31.3 µM (inactive)
- GI50 [16]: 34.7 µM (inactive)
- GI50 [17]: 32 µM (inactive)
- GI50 [18]: 21.7 µM (inactive)
- GI50 [19]: 39.8 µM (inactive)
- GI50 [20]: 30.4 µM

SMILES: CCNC(C)(C)C(SS)c1ccc(Br)cc1 (stereo not given)
- GI50 [1]: 60.5 µM (inactive)
- GI50 [2]: > 100 µM (inactive)
- GI50 [3]: 88.9 µM (inactive)
- GI50 [4]: 34.8 µM (inactive)
- GI50 [5]: > 100 µM (inactive)
- GI50 [6]: 39.4 µM (inactive)
- GI50 [7]: 31.1 µM (inactive)
- GI50 [8]: > 100 µM (inactive)
- GI50 [9]: 59.2 µM (inactive)
- GI50 [10]: 22.4 µM (inactive)
- GI50 [11]: 63.1 µM (inactive)
- GI50 [12]: 44.3 µM (inactive)
- GI50 [13]: > 100 µM (inactive)
- GI50 [14]: 60.8 µM (inactive)
- GI50 [15]: 79.1 µM (inactive)
- GI50 [16]: > 100 µM (inactive)
- GI50 [17]: 78 µM (inactive)
- GI50 [18]: > 100 µM (inactive)
- GI50 [19]: 29.6 µM (inactive)
- GI50 [20]: > 100 µM

SMILES: COC(=O)/C=C1/OC(c2ccc(Br)cc2)=C(Br)C1=O
- GI50 [1]: 6.93 µM (inactive)
- GI50 [2]: 16 µM (inactive)
- GI50 [3]: 7.05 µM (inactive)
- GI50 [4]: 7.67 µM (inactive)
- GI50 [5]: 16.6 µM (inactive)
- GI50 [6]: 10.5 µM (inactive)
- GI50 [7]: 14.5 µM (inactive)
- GI50 [8]: 10.6 µM (inactive)
- GI50 [9]: 4.93 µM (inactive)
- GI50 [10]: 2.6 µM (inactive)
- GI50 [11]: 7.57 µM (inactive)
- GI50 [12]: 2.57 µM (inactive)
- GI50 [13]: 7.43 µM (inactive)
- GI50 [14]: 6.93 µM (inactive)
- GI50 [15]: 11.7 µM (inactive)
- GI50 [16]: 8.38 µM (inactive)
- GI50 [17]: 2.33 µM (inactive)
- GI50 [18]: 6.7 µM (inactive)
- GI50 [19]: 3 µM (inactive)
- GI50 [20]: 5.14 µM

SMILES: COc1cc(S(=O)(=O)Nc2nc(-c3ccc(N4C(=O)/C(=C/C=C/c5ccccc5)N=C4c4ccccc4)cc3)cs2)ccc1Cl
- GI50 [1]: > 100 µM (inactive)
- GI50 [2]: > 100 µM (inactive)
- GI50 [3]: 35 µM (inactive)
- GI50 [4]: > 100 µM (inactive)
- GI50 [5]: > 100 µM (inactive)
- GI50 [6]: 43 µM (inactive)
- GI50 [7]: > 100 µM (inactive)
- GI50 [8]: 78.3 µM (inactive)
- GI50 [9]: > 100 µM (inactive)
- GI50 [10]: > 100 µM (inactive)
- GI50 [11]: > 100 µM (inactive)
- GI50 [12]: 53.1 µM (inactive)
- GI50 [13]: 93.1 µM (inactive)
- GI50 [14]: 28.9 µM (inactive)
- GI50 [15]: > 100 µM (inactive)
- GI50 [16]: 36.2 µM (inactive)
- GI50 [17]: > 100 µM (inactive)
- GI50 [18]: > 100 µM (inactive)
- GI50 [19]: 78.9 µM (inactive)
- GI50 [20]: > 100 µM

SMILES: CCOC(=O)c1c(Sc2ccc([N+](=O)[O-])cc2[N+](=O)[O-])nc2c3ccccc3ccn12
- GI50 [1]: > 100 µM (inactive)
- GI50 [2]: > 100 µM (inactive)
- GI50 [3]: > 39.8 µM (inactive)
- GI50 [4]: > 100 µM (inactive)
- GI50 [5]: 62.8 µM (inactive)
- GI50 [6]: > 100 µM (inactive)
- GI50 [7]: > 55.7 µM (inactive)
- GI50 [8]: > 100 µM (inactive)
- GI50 [9]: > 100 µM (inactive)
- GI50 [10]: > 100 µM (inactive)
- GI50 [11]: 13.1 µM (inactive)
- GI50 [12]: 31.8 µM (inactive)
- GI50 [13]: 13.3 µM (inactive)
- GI50 [14]: 28.6 µM (inactive)
- GI50 [15]: > 41.9 µM (inactive)
- GI50 [16]: 13.8 µM (inactive)
- GI50 [17]: 15.6 µM (inactive)
- GI50 [18]: > 91 µM (inactive)
- GI50 [19]: > 91 µM (inactive)
- GI50 [20]: > 100 µM
